The source of these data is ChEMBL document CHEMBL1938228, “Design and synthesis of potent carboxylic acid DGAT1 inhibitors with high cell permeability” (Bioorg Med Chem Lett, 2012).

The structures appear in SMILES notation.

In data set [1] the test system is Salmonella typhimurium. The data set can be described thus: Induction of mutagenesis in Salmonella Typhimurium TA98 assessed as increase in mutation frequency in presence of liver S9 fraction relative to untreated control. The class given is toxicity, organism-based. The following applies: salmonella enterica subsp. enterica serovar typhimurium.
The nature of data set [2]: Aqueous solubility of the compound. The class given is physicochemical.
Data set [3] can be described thus: Lipophilicity, log D of the compound. The class given is physicochemical. The following applies: octanol/water.

In the case of `CC(C)(COc1ccc(-c2ccc(N)cc2)cn1)C(=O)O`, in data set [1], the “fold change (FC)” value amounted to 2.6.

Consider `CC(C)(COc1ccc(-c2ccc(N)cc2)cc1)C(=O)O`, for which the “fold change (FC)” value in data set [1] turned out to be 24. For `CC(Sc1nnc(-c2ccc(NC(=O)c3ccccc3)cc2)n1C)C(=O)O` (racemic), in data set [2], the solubility is more than 1000 µg/mL. For the same compound, the logD in data set [3] was -0.53.
